Tests used:
[1] = molecular target: Metabotropic glutamate receptor 2 (Rattus norvegicus) (UniProt P31421); test: Binding affinity for mGluR2 receptor expressed in CHO cells
[2] = molecular target: Metabotropic glutamate receptor 2 (Rattus norvegicus) (UniProt P31421); test: Effective concentration against mGluR2 receptor expressed in CHO cells

Metabotropic glutamate receptor 2 (Rattus norvegicus), sequence (P31421 whole entry, looked up): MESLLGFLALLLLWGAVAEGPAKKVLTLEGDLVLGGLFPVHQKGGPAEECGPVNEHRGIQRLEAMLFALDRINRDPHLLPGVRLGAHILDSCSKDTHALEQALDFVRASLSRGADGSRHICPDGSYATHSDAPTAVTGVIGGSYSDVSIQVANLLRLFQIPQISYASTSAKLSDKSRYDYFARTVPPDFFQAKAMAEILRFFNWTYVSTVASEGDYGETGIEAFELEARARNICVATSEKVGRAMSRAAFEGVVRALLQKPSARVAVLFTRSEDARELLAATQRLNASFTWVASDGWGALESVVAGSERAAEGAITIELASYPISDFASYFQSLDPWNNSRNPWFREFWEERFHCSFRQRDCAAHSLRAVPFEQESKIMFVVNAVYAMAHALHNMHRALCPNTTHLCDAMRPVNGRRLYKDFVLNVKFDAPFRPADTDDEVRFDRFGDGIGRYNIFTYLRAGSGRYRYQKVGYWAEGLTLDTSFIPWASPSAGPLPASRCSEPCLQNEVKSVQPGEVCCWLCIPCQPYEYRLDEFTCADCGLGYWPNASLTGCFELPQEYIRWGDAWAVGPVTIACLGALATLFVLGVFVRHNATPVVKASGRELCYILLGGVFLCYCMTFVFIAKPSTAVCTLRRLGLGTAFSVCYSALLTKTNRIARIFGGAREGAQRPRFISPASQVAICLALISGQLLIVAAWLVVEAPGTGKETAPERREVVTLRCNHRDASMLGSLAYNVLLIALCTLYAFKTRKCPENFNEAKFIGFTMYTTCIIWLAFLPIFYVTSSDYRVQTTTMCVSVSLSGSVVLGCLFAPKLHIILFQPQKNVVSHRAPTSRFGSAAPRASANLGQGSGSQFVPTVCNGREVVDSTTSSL

Ki [1]: > 1 mM
EC50 [2]: > 1 mM
SMILES: N[C@@H](C[C@H]1CC(C(=O)O)=NO1)C(=O)O [5-(2-Amino-2-carboxy-ethyl)-4,5-dihydro-isoxazole-3-carboxylic acid]

Source: BindingDB's records for doi:10.1021/jm0504499 (Universit&#224, 2005)
